Source: PubChem BioAssay (NCI)
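Where inhibition never reached the appropriate level, the endpoint shown equals the highest concentration tested. Otherwise, values were interpolated linearly from a five-concentration, 48-hour dose response in 96-well plates. Here, GI50 denotes the concentration required for 50% inhibition of growth. At the TGI there is no net growth.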

Tests used:
Experiment in all cases: growth of human tumour cells (NCI), 48 h
[1] = test system: EKVX NSCLC
[2] = test system: U251 CNS
[3] = test system: MOLT-4 leukemia
[4] = test system: HL-60(TB) leukemia
[5] = test system: ACHN renal
[6] = test system: DU-145 prostate
[7] = test system: BT-549 breast
[8] = test system: HS 578T breast
[9] = test system: MCF7 breast
[10] = test system: HCC-2998 colon

| Structure (SMILES) | TGI [1] [µM] | TGI [2] [µM] | TGI [3] [µM] | TGI [4] [µM] | TGI [5] [µM] | GI50 [1] [µM] | GI50 [2] [µM] | GI50 [6] [µM] | TGI [6] [µM] | GI50 [4] [µM] | GI50 [7] [µM] | TGI [7] [µM] | GI50 [8] [µM] | TGI [8] [µM] | GI50 [5] [µM] | GI50 [9] [µM] | TGI [9] [µM] | GI50 [10] [µM] | TGI [10] [µM] | GI50 [3] [µM] |
| --- | --- | --- | --- | --- | --- | --- | --- | --- | --- | --- | --- | --- | --- | --- | --- | --- | --- | --- | --- | --- |
| O=C(NC1CCCC1=O)c1ccccc1 (configuration not stated) | > 100 | > 100 | > 100 | > 100 | > 100 | – | – | – | – | – | – | – | – | – | – | – | – | – | – | – |
| CN1CCN(CC(O)COc2c(Br)c(Br)c(Br)c3c2OC(C)(C)C3)CC1 (configuration not stated) | 19.7 | 12.9 | – | 18 | 24.7 | 5.21 | 3.56 | 11.8 | 24.5 | 4.57 | 10.6 | 26.4 | 10.4 | 42.7 | 11.3 | 3.33 | 14.5 | – | – | – |
| Nc1ccc(-c2nc3ccccc3[nH]2)c2ccccc12 | > 100 | 30.6 | > 100 | – | 41.3 | 14.5 | 4.12 | 2.81 | > 22.3 | – | 2.39 | 22.5 | 3.5 | > 30 | 8.41 | 2.38 | > 100 | 2.46 | 10.5 | 3.44 |
| C=C1CCC2[C@@H](CCC3[C@]2(C)CCC[C@]3(C)C(=O)OC)[C@@H]1CC=O (some centres not stated) | 77.6 | > 100 | 59.9 | 55.9 | 82 | – | 46 | – | – | – | – | – | – | – | – | – | – | – | > 100 | 23.6 |
| C[C@@H]1O[C@@H](OC[C@H]2O[C@@H](OCCc3ccc(O)c(O)c3)[C@H](O)[C@@H](O)[C@@H]2OC(=O)/C=C/c2ccc(O)c(O)c2)[C@H](O)[C@H](O)[C@H]1O | > 100 | > 100 | > 100 | > 100 | > 100 | > 100 | > 100 | 36.8 | > 100 | > 100 | 24.5 | 54.3 | > 100 | > 100 | > 100 | – | – | 69.3 | > 100 | > 100 |
| COC12c3ccccc3-c3ccccc3C1[C@H]1C(=O)OC(=O)[C@H]12 (some centres not stated) | > 10 | > 10 | > 10 | > 10 | > 10 | – | – | – | > 10 | – | – | – | – | > 10 | – | – | > 10 | – | > 10 | – |
| Fc1cccc(C2SCc3nc4ccccc4n32)c1F (configuration not stated) | > 100 | > 100 | 68.5 | 46.9 | > 100 | – | – | – | – | – | – | – | – | – | – | – | – | – | > 100 | – |
| O=C([CH-]C(=O)c1ccccc1)c1ccccc1.O=C([CH-]C(=O)c1ccccc1)c1ccccc1.[OH-].[OH-].[Ti+4] | > 100 | > 100 | > 100 | > 100 | > 100 | 94.9 | 18.1 | – | – | > 100 | – | – | – | – | > 100 | – | – | > 100 | > 100 | 54.7 |
| CN(C)c1ccc(/C=C2\C=Cc3ccccc32)cc1 | – | > 100 | > 100 | > 100 | > 100 | – | – | – | – | – | – | – | – | – | – | – | – | – | > 100 | – |
| c1ccc(P(=Nc2ccccc2N=P(c2ccccc2)(c2ccccc2)c2ccccc2)(c2ccccc2)c2ccccc2)cc1 | 15 | 11.6 | – | 3.43 | 10.2 | – | – | – | – | – | – | – | – | – | – | – | – | – | 12.8 | – |
| CN(CCCCCl)P(=O)(OCCS(=O)(=O)CC(NC(=O)CCC(N)C(=O)O)C(=O)NC(C(=O)O)c1ccccc1)OCC1OC(n2cc(F)c(=O)[nH]c2=O)CC1O (configuration not stated) | > 100 | > 41.6 | > 95.5 | 31.3 | 14 | 39.2 | < 0.0171 | 0.214 | > 100 | 4.87 | 15.3 | > 94.7 | 5.89 | 97.6 | < 0.01 | < 0.01 | – | – | – | 0.274 |
| COc1cc2c(cc1OC)C1(c3ccc(Cl)cc3)ON=C(c3ccccc3)N1CS2 (configuration not stated) | > 100 | > 100 | > 100 | > 100 | > 100 | – | – | – | – | – | – | – | – | – | – | – | – | – | > 100 | – |
| C[CH2][Pb]([CH2]C)([CH2]C)[O]C(=O)c1ccc2ccccc2n1 | > 10 | > 10 | > 10 | > 10 | > 10 | > 10 | > 10 | > 10 | > 10 | > 10 | > 10 | > 10 | > 10 | > 10 | > 10 | – | – | > 10 | > 10 | > 10 |
| COc1ccc(C=O)c(NC(=O)C(C)C)c1 | > 100 | > 100 | 74.7 | – | > 100 | – | – | – | – | – | – | – | – | – | – | – | – | – | – | – |
| CC1(C)OC2C(=O)C=C(COCc3ccccc3)C2O1 (configuration not stated) | > 100 | 90 | > 100 | 77.1 | > 100 | – | – | – | > 100 | – | – | 39.8 | – | > 100 | – | – | > 100 | – | – | – |
| Cc1cccc(NC(=O)c2sc3nc4c(cc3c2N)CN(Cc2ccccc2)CC4)c1C | > 50 | > 50 | > 50 | – | > 50 | 0.45 | 0.251 | 0.201 | > 50 | – | 0.304 | > 50 | 0.189 | > 50 | 0.409 | 0.151 | > 50 | 5.39 | > 50 | 0.286 |
| Cc1nc2ccccc2c(/C=C/c2ccc(Br)cc2)c1C(=O)/C=C/c1ccccc1 | 3.32 | 2.97 | 5.06 | 5.27 | 3.02 | 1.75 | 1.57 | 1.62 | 3.15 | 2.17 | 1.86 | 4.49 | – | – | 1.64 | 0.895 | 2.72 | 1.8 | 3.54 | 0.696 |
